Columns and labels:
[1] = Percent weight change as measure of toxicity in BALB-neuT mice; assay type: in vivo
Experimental: Female BALB-neu-T mice spontaneously developed palpable mammary fat pad tumors around 16 weeks of age (approximately 50-60 mm^3). At this time (day 0), the mice typically had 1-3 palpable tumors. For each experiment, individual tumors were measured by caliper, and their volume was calculated. Individual tumor volumes were calculated as spheroid (L×W^2×0.52) and combined to give a total tumor burden measurement for each mouse. Tumor burden data was gathered weekly from day 0 to day 35. Additionally, percent weight change data was gathered weekly for each mouse from day 0 to day 35. The percent weight change was calculated based on the baseline weight of each mouse.
Various embodiments of method 200, described above with respect to FIG. 2, were used to treat tumors in the BALB-neuT model using combinations of attenuated S. typhimurium and the chemotherapy agent doxorubicin. A prescribed amount per cfu of the appropriate S. typhimurium strain (SalpIL2 or SalpNG.1) was administered via intravenous injection or gavage orally in 100 μL of PBS. The doxorubicin was administered intravenously via tail vein. Additionally, using the same methods of administration, a number of control groups received PBS alone, doxorubicin alone, SalpIL2 alone, or SalpNG.1 alone.
FIG. 6 is a line graph of percent weight change versus days post-treatment in mice treated with combinations of attenuated S. typhimurium and doxorubicin compared to control groups. Weight change in mice is an accurate measure of the degree of toxicity of a chemotherapy agent. […] While the control group that received PBS (301) saw a greater than 25% increase in weight by day 30, the mice in that group died or were moribund and euthanized due to tumor growth.

[2] = tested on: mammary fat pad tumors; assay type: in vivo, BALB-neuT mice
Excerpt: The BALB-neuT model is a genetically engineered mouse model in which mammary tumor development is driven by expression of a constitutively activated rat homolog of human epidermal growth factor receptor 2. In this model, autochthonous tumors develop over several months and are palpable in the mammary pads of female mice around 16 weeks of age. The tumors closely resemble the aggressive Her2-driven cancer found in human patients.
BALB-neuT mice were maintained in specific pathogen free conditions and fed standard mouse chow (Harlan). Animals were cared for by the University of Minnesota's Research Animal Resources, and all animal use was approved by the University's Institutional Animal Care and Use Facility. Genotyping for the neu transgene was performed by Transnetyx on male and female pups. Breeding pairs consisted of heterozygous males and homozygous negative females. Female mice that were positive for the neu transgene were monitored for tumor development.
Three control groups received doxorubicin alone. The first control group (302) received the maximum tolerated dose (MTD) of intravenous (IV) 5 mg/kg doxorubicin on days 0, 7, and 14. The second control group (303) received IV 2.5 mg/kg (50% reduction in MTD) doxorubicin on days 0, 7 and 14.
One control group (305) of mice received SalpIL2 alone. […] Another control group (306) received Salp NG.1 alone.
For combination therapy treatment with SalpIL2, one group of mice (307) received an oral dose of 1×10^9 cfu SalpIL2 as well as IV 1.25 mg/kg doxorubicin on day 0. Two additional doses of IV 1.25 mg/kg doxorubicin were administered on days 7 and 14. For combination therapy treatment with SalpNG.1, a first group of mice (308) received an IV dose of 2×10^6 cfu SalpNG.1 as well as IV 1.25 mg/kg doxorubicin on day 0. Two additional doses of IV 1.25 mg/kg doxorubicin were administered on days 7 and 14. A second group of mice (309) received an IV dose of 2×10^6 cfu SalpNG.1 as well as IV 2.5 mg/kg doxorubicin on day 0. Two additional doses of IV 2.5 mg/kg doxorubicin were administered on days 7 and 14.

[3] = doxorubicin alone IV 1.25 mg/kg on days 0, 7, 14, group 304
[4] = doxorubicin alone IV 5 mg/kg (MTD) on days 0, 7, 14, group 302
[5] = doxorubicin alone IV 1.25 mg/kg (25% of MTD) on days 0, 7, 14, group 304

## COc1cccc2c1C(=O)c1c(O)c3c(c(O)c1C2=O)C[C@@](O)(C(=O)CO)C[C@@H]3O[C@H]1C[C@H](N)[C@H](O)[C@H](C)O1 [doxorubicin]
[1]; [3]
  toxicity judged from weight change: non-toxic
  weight change by day 14: did not show any weight loss
  weight gain by day 35: < 10%
[1]; [4]
  toxicity judged from weight change: significant toxicity
  weight loss by day 14: greater than 20%
  weight loss by day 35: ~10%
[2]; [5]
  tumor burden relative to the MTD doxorubicin group (302) by day 21: almost double
  tumor burden relative to the MTD doxorubicin group (302) by day 35: ~5 times
[2]; doxorubicin alone IV 2.5 mg/kg (50% of MTD) on days 0, 7, 14, group 303
  tumor burden compared with groups 302 (MTD) and 304 (1.25 mg/kg): in between
[2]; [4]
  tumor burden at day 35: around 100 mm^3
  tumor burden compared with the other groups: lowest
